# In US10280149B2, “Therapeutic compounds and uses thereof” (GENENTECH, INC., priority 2015, dated 2019):
# Target: Full length KDM2B (Homo sapiens (Human), UniProt Q8NHM5)
# Experiment: KDM2B TR-FRET assay for determining inhibitor IC50
# Type: biochemical
# Conditions: TR-FRET (HTRF), biotin-H3K36me2 peptide substrate, 2-OG 0.3 μM or 6 μM
# Source text: KDM2B TR-FRET Assay for Determining Inhibitor IC50
# The KDM2B TR-FRET Assay described above represents an additional embodiment of the invention.
# Sequence of Full length KDM2B (Q8NHM5 whole entry): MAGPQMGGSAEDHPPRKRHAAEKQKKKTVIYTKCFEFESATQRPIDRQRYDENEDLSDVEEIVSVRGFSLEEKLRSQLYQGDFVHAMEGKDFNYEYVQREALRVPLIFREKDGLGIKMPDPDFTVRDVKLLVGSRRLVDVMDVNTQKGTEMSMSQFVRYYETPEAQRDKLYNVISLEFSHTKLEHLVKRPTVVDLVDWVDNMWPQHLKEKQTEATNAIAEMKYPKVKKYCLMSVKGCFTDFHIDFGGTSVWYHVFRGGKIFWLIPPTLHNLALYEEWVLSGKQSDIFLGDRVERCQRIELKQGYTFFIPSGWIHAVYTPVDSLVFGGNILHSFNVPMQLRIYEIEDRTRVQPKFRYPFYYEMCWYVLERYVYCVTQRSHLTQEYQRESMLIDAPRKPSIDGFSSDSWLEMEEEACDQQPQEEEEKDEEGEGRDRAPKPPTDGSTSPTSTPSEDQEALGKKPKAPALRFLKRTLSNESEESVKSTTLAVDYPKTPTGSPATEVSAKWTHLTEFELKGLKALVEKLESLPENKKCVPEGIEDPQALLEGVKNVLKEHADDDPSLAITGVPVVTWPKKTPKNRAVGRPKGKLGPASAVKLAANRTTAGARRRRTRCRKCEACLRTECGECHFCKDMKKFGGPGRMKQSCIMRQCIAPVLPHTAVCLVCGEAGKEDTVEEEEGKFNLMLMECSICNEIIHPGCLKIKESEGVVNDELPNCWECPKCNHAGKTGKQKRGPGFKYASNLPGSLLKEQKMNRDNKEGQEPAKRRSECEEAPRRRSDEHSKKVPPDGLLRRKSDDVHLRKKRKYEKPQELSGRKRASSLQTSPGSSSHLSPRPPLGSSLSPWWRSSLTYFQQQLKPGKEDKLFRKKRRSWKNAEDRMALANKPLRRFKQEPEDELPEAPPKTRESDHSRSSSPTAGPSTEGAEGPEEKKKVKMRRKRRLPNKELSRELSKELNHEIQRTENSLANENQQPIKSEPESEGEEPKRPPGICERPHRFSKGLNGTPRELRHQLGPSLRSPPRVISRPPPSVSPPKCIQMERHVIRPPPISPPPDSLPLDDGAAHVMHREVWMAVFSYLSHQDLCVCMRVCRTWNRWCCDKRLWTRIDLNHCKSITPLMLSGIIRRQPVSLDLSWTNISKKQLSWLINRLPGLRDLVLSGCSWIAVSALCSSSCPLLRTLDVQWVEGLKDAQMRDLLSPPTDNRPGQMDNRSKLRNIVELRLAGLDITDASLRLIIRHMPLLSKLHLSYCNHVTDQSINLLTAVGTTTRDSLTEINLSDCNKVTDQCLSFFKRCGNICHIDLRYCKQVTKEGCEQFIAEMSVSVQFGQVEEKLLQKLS
row,Compound,IC50
1,"O=C(c1ccc(C(F)(F)F)cc1)C1CCCN(CC2CC2)C1 (stereo not drawn) [Example 22, [1-(cyclopropylmethyl)-3-piperidyl]-[4-(trifluoromethyl)phenyl]methanone]",1400 nM
2,"O=C(c1ccc2ccccc2c1F)C1CCCN(CC2CC2)C1 (stereo not drawn) [Example 128, (1-(cyclopropylmethyl)piperidin-3-yl)(1-fluoronaphthalen-2-yl)methanone]",133 nM
3,"CCC1CCN(C2CC2)CC1C(=O)c1ccc2cc(OC)ccc2c1 (single isomer, unassigned) [Example 147b, (1-cyclopropyl-4-ethylpiperidin-3-yl)(6-methoxynaphthalen-2-yl)methanone]",4.9 nM
4,"CCC[C@H]1CCN(C2CCC2)C[C@@H]1C(=O)c1ccc2cc(OC)ccc2c1 (single isomer, unassigned) [Example 140b, (1-cyclobutyl-4-propylpiperidin-3-yl)(6-methoxynaphthalen-2-yl)methanone]",328 nM
5,(1-(cyclopropylmethyl)-4-methylpiperidin-3-yl)(6-methoxynaphthalen-2-yl)methanone [Example 137a],70.6 nM
6,"O=C(c1ccc(Oc2ccccc2)cc1)[C@@H]1CCCN(CC2CC2)C1 [Example 30, [(3R)-1-(cyclopropylmethyl)-3-piperidyl]-(4-phenoxyphenyl)methanone]",5900 nM
7,"COc1ccc2cc(C(=O)C3CCCN(C4COC4)C3)ccc2c1 (stereo not drawn) [Example 14, (6-methoxy-2-naphthyl)-[1-(oxetan-3-yl)-3-piperidyl]methanone]",1200 nM
8,"COc1ccc2cc(C(=O)[C@@H]3CN(C4CCC4)CC[C@@H]3C)ccc2c1CC#N (stereo in doubt) [Example 182b, 2-(6-(1-cyclobutyl-4-methylpiperidine-3-carbonyl)-2-methoxynaphthalen-1-yl)acetonitrile]",1.12 nM
9,Cc1ccc2cc(C(=O)C3CCCN(CC4CC4)C3)ccc2n1 (stereo not drawn) [Example 173],255 nM
10,"COc1ccc2cc(C(=O)C3CCCN(CC4CC4)C3)ccc2c1CC#N (stereo not drawn) [Example 53, 2-[6-[1-(cyclopropylmethyl)piperidine-3-carbonyl]-2-methoxy-1-naphthyl]acetonitrile]",33.5 nM
11,"CS(=O)(=O)N1CCc2cc(C(=O)C3CCCN(C4CCC4)C3)ccc2C1 (stereo not drawn) [Example 149, (1-cyclobutylpiperidin-3-yl)(2-(methylsulfonyl)-1,2,3,4-tetrahydroisoquinolin-6-yl)methanone]",163 nM
12,"CS(=O)(=O)c1ccc2cc(C(=O)C3CCCN(C4CCC4)C3)ccc2c1 (stereo not drawn) [Example 170, (1-cyclobutylpiperidin-3-yl)(6-(methylsulfonyl)naphthalen-2-yl)methanone]",42.6 nM
13,"COc1ccc2cc(C(=O)[C@@H]3CN(C4CCC4)CC[C@@H]3C(C)C)ccc2c1CC#N (stereo in doubt) [Example 186a, 2-(6-(1-cyclobutyl-4-isopropylpiperidine-3-carbonyl)-2-methoxynaphthalen-1-yl)acetonitrile]",70.1 nM
14,"O=C(c1cccc(Cl)c1)[C@H]1CCCN(CC2CC2)C1 (stereo in doubt) [Example 118b, (3-chlorophenyl)(1-(cyclopropylmethyl)piperidin-3-yl)methanone]",661 nM
15,"COc1ccc2cc(C(=O)[C@@H]3CCCN(CC4CC4)C3)ccc2c1 [Example 7, [(3R)-1-(cyclopropylmethyl)-3-piperidyl]-(6-methoxy-2-naphthyl)methanone]",123 nM
16,"COc1ccc2cc(C(=O)[C@@H]3CN(C4CCC4)CC[C@@H]3CC(C)C)ccc2c1 (single isomer, unassigned) [Example 144a, (1-cyclobutyl-4-isobutylpiperidin-3-yl)(6-methoxynaphthalen-2-yl)methanone]",5.6 nM
17,"O=C(c1ccc(Oc2ccccc2)cc1)[C@H]1CCCN(CC2CC2)C1 [Example 31, [(3S)-1-(cyclopropylmethyl)-3-piperidyl]-(4-phenoxyphenyl)methanone]",136 nM
18,"N#Cc1cc(C(=O)C2CCCN(CC3CC3)C2)cc2ccccc12 (stereo not drawn) [Example 43, 3-[1-(cyclopropylmethyl)piperidine-3-carbonyl]naphthalene-1-carbonitrile]",143 nM
